From patent publication US10808007B2, “Desacetoxytubulysin H and analogs thereof” (WILLIAM MARSH RICE UNIVERSITY, priority 2015, dated 2020)
Like-named read-outs stand apart in the source and are kept apart here.

How the values were obtained:
Assay type in all cases: cell-based
[1] = test system: MES SA (uterine sarcoma cells); assay: Cytotoxic assay (CellTiter-Glo, 72 h), MES SA
[2] = test system: HEK 293T (human embryonic kidney cells); assay: Cytotoxic assay (CellTiter-Glo, 72 h), HEK 293T
[3] = test system: MES SA DX (multidrug resistant uterine sarcoma cells); assay: Cytotoxic assay (CellTiter-Glo, 72 h), MES SA DX; conditions: Homo sapiens
[4] = Homo sapiens, MES-SA, 72 h, read-out: IC50 MES SA
[5] = Homo sapiens, MES-SA, read-out: IC50 MES SA
[6] = Homo sapiens, HEK-293T, 72 h, read-out: IC50 HEK 293T
[7] = Homo sapiens, HEK-293T, read-out: IC50 HEK 293T
[8] = Homo sapiens, MES-SA, read-out: MES SA IC50 (nM)
[9] = Homo sapiens, HEK-293T, read-out: HEK 293T IC50 (nM)

Work on `COC(=O)[C@@H](C)C[C@H](Cc1ccccc1)NC(=O)c1csc([C@@H](C[C@H](C(C)C)N(C)C(=O)[C@@H](NC(=O)[C@H]2CCCCN2C)C(C)C)OC(C)=O)n1` [Tb32, (2S,4R)-Methyl 4-(2-((1R,3R)-1-acetoxy-3-((S)—N,3-dimethyl-2-((R)-1-methylpiperidine-2-carboxamido)butanamido)-4-methylpentyl)thiazole-4-carboxamido)-2-methyl-5-phenylpentanoate] yielded an IC50 [1, 4] of 0.012 nM, an IC50 [1, 5] of 0.012 nM and an IC50 [2, 6] of 0.002 nM. The IC50 [2, 7] was 0.002 nM and the IC50 [3] was 1.29 nM.

For `COC(=O)[C@@H](C)C[C@H](Cc1ccc(F)cc1)NC(=O)c1csc([C@@H](C[C@H](C(C)C)N(C)C(=O)[C@@H](NC(=O)[C@H]2CCCCN2C)C(C)C)OC(C)=O)n1` [Tb40, Methyl(2S,4R)-4-(2-((1R,3R)-1-acetoxy-3-((S)—N,3-dimethyl-2-((R)-1-methylpiperidine-2-carboxamido)butanamido)-4-methylpentyl)thiazole-4-carboxamido)-5-(4-fluorophenyl)-2-methylpentanoate], the IC50 [1, 4] was 15.6 nM, the IC50 [2, 6] was > 1000 nM and the IC50 [3] was > 1000 nM.

For `CC(=O)O[C@H](C[C@H](C(C)C)N(C)C(=O)[C@@H](NC(=O)[C@H]1CCCCN1C)C1CC1)c1cccc(C(=O)N[C@@H](Cc2ccccc2)C[C@H](C)C(=O)O)n1` [Tb37, (2S,4R)-4-(6-((1R,3R)-1-Acetoxy-3-((S)-2-cyclopropyl-N-methyl-2-((R)-1-methylpiperidine-2-carbox-amido)acetamido)-4-methylpentyl)picolinamido)-2-methyl-5-phenylpentanoic Acid], the IC50 [1, 4] was 14.4 nM, the IC50 [2, 6] was 3.52 nM and the IC50 [3] was > 1000 nM.

`COC(=O)[C@@H](C)C[C@H](Cc1ccccc1)NC(=O)c1cccc([C@@H](C[C@H](C(C)C)N(C)C(=O)[C@@H](NC(=O)[C@H]2CCCCN2C)C2CC2)OC(C)=O)n1` [Tb36, Methyl (2S,4R)-4-(6-((1R,3R)-1-acetoxy-3-((S)-2-cyclopropyl-N-methyl-2-((R)-1-methylpiperidine-2-carboxamido)acetamido)-4-methylpentyl)picolinamido)-2-methyl-5-phenylpentanoate] was tested, and the IC50 [1, 4] was 0.308 nM, the IC50 [1, 5] was 0.308 nM and the IC50 [2, 6] was 0.631 nM. For the same compound, the IC50 [2, 7] was 0.631 nM and the IC50 [3] was > 1000 nM.

`CCCCN1CCCC[C@@H]1C(=O)N[C@H](C(=O)N(C)[C@H](CCc1nc(C(=O)N[C@@H](Cc2ccccc2)C[C@H](C)C(=O)OC)cs1)C(C)C)C(C)C` [PTb-D51, Methyl(2S,4R)-4-(2-((R)-3-((S)-2-((R)-1-butylpiperidine-2-carboxamido)-N,3-dimethylbutanamido)-4-methylpentyl)thiazole-4-carboxamido)-2-methyl-5-phenylpentanoate] was tested, and the IC50 [1, 8] was > 100 nM and the IC50 [2, 9] was > 100 nM.

`CC[C@H](C)[C@H](NC(=O)[C@H]1CCCCN1C)C(=O)N[C@H](C[C@@H](OC(C)=O)c1nc(C(=O)N[C@@H](Cc2ccccc2)C[C@H](C)C(=O)OC)cs1)C(C)C` [Tb-53, (2S,4R)-Methyl 4-(2-((1R,3R)-1-acetoxy-4-methyl-3-((2S,3S)-3-methyl-2-((R)-1-methylpiperidine-2-carboxamido)pentanamido)pentyl)thiazole-4-carboxamido)-2-methyl-5-phenyl pentanoate] gave an IC50 [1, 8] of 0.92 nM and an IC50 [2, 9] of 0.56 nM.

Work on `COC(=O)[C@@H](C)C[C@H](Cc1ccccc1)NC(=O)c1csc([C@@H](C[C@H](C(C)C)N(C)C(=O)C2(NC(=O)[C@H]3CCCCN3C)CCCC2)OC(C)=O)n1` [Tb-52, Methyl (2S,4R)-4-(2-((1R,3R)-1-acetoxy-4-methyl-3-(N-methyl-1-((R)-1-methylpiperidine-2-carboxa-mido)cyclopentane-1-carboxamido)pentyl)thiazole-4-carboxamido)-2-methyl-5-phenylpentanoate] yielded an IC50 [1, 8] of 7.18 nM and an IC50 [2, 9] of 5.78 nM.

With `CC[C@H](C)[C@H](NC(=O)c1ncccn1)C(=O)N(C)[C@H](C[C@@H](OC(C)=O)c1nc(C(=O)N[C@@H](Cc2ccccc2)C[C@H](C)C(=O)OC)cs1)C(C)C` [Tb34, (2S,4R)-methyl 4-(2-((1R,3R)-1-acetoxy-3-((2S,3S)—N,3-dimethyl-2-(pyrimidine-2-carboxamido)pentanamido)-4-methylpentyl)thiazole-4-carboxamido)-2-methyl-5-phenylpentanoate] the IC50 [1, 4] was > 1000 nM, the IC50 [2, 6] was > 500 nM and the IC50 [3] was > 1000 nM.

Work on `COC(=O)[C@@H](C)C[C@H](Cc1ccc(F)cc1)NC(=O)c1csc([C@@H](C[C@H](C(C)C)N(C)C(=O)[C@@H](NC(=O)[C@H]2CCCCN2C)C2CC2)OC(C)=O)n1` [Tb-57, Methyl (2S,4R)-4-(2-((1R,3R)-1-acetoxy-3-((S)-2-cyclopropyl-N-methyl-2-((R)-1-methylpiperidine-2-carboxamido)acetamido)-4-methylpentyl)thiazole-4-carboxamido)-5-(4-fluorophenyl)-2-methylpentanoate] yielded an IC50 [1, 8] of ~89.3 nM and an IC50 [2, 9] of ~105 nM.

`CC[C@H](C)[C@H](NC(=O)[C@H]1CCCCN1C)C(=O)N(C)[C@H](C[C@@H](OC(C)=O)c1nc(C(=O)NC23C4C5C2C2C3C4C52C(=O)OC)cs1)C(C)C` (some centres unmarked) [Tb1l] showed an IC50 ([1]; MES SA, read-out: IC50 MES SA) of 0.84 nM and an IC50 ([2]; HEK 293T, read-out: IC50 HEK 293T) of 0.26 nM.

Compound `COC(=O)C12CC(NC(=O)c3csc([C@@H](C[C@H](C(C)C)N(C)C(=O)[C@@H](NC(=O)[C@H]4CCCCN4C)C(C)C)OC(C)=O)n3)(C1)C2` [Tb-55, Methyl 3-(2-((1R,3R)-1-acetoxy-3-((S)—N,3-dimethyl-2-((R)-1-methylpiperidine-2-carboxamido)butanamido)-4-methylpentyl)thiazole-4-carboxamido)bicyclo[1.1.1]pentane-1-carboxylate] has an IC50 [1, 8] of 0.93 nM and an IC50 [2, 9] of 0.35 nM.

For `COC(=O)[C@@H](C)C[C@H](Cc1ccccc1)NC(=O)c1csc(CC[C@H](C(C)C)N(C)C(=O)[C@@H](NC(=O)[C@H]2CCCCN2C)C(C)C)n1` [PTb-D50, Methyl(2S,4R)-4-(2-((R)-3-((S)—N,3-dimethyl-2-((R)-1-methylpiperidine-2-carboxamido)butanamido)-4-methylpentyl)thiazole-4-carboxamido)-2-methyl-5-phenylpentanoate], the IC50 [1, 8] was > 100 nM and the IC50 [2, 9] was > 100 nM.

With `CCCCN1CCCC[C@@H]1C(=O)N[C@H](C(=O)N(C)[C@H](C[C@@H](OC(C)=O)c1nc(C(=O)N[C@H]2CC[C@H](C(=O)O)CC2)cs1)C(C)C)C(C)C` [Tb-61] the IC50 [1, 8] was > 100 nM and the IC50 [2, 9] was > 100 nM.

With `CCCCN1CCCC[C@@H]1C(=O)N[C@H](C(=O)N(C)[C@H](CCc1nc(C(=O)N[C@@H](Cc2ccccc2)C[C@H](C)C(=O)OC)cs1)C(C)C)[C@@H](C)CC` [PTb-D49, Methyl(2S,4R)-4-(2-((R)-3-((2S,3S)-2-((R)-1-butylpiperidine-2-carboxamido)-N,3-dimethylpentanamido)-4-methylpentyl)thiazole-4-carboxamido)-2-methyl-5-phenylpentanoate] the IC50 [1, 8] was > 100 nM and the IC50 [2, 9] was > 100 nM.

`CCCCN1CCCC[C@@H]1C(=O)N[C@H](C(=O)N(C)[C@H](C[C@@H](OC(C)=O)c1nc(C(=O)N[C@H]2CC[C@H](C(=O)OC)CC2)cs1)C(C)C)C(C)C` [Tb-60, Methyl (1R,4r)-4-(2-((1R,3R)-1-acetoxy-3-((S)-2-((R)-1-butylpiperidine-2-carboxamido)-N,3-dimethylbutanamido)-4-methylpentyl)thiazole-4-carboxamido)cyclohexane-1-carboxylate] was tested, and the IC50 [1, 8] was > 100 nM and the IC50 [2, 9] was > 100 nM.

`COC(=O)CC12CC(NC(=O)c3csc([C@@H](C[C@H](C(C)C)N(C)C(=O)[C@@H](NC(=O)[C@H]4CCCCN4C)C(C)C)OC(C)=O)n3)(C1)C2` [Tb-56, Methyl 2-(3-(2-((1R,3R)-1-acetoxy-3-((S)—N,3-dimethyl-2-((R)-1-methylpiperidine-2-carboxamido)butanamido)-4-methylpentyl)thiazole-4-carboxamido)bicyclo[1.1.1]pentan-1-yl)] gave an IC50 [1, 8] of ~2.73 nM and an IC50 [2, 9] of 1.79 nM.

With `CC(=O)O[C@H](C[C@H](C(C)C)N(C)C(=O)[C@@H](NC(=O)[C@H]1CCCCN1C)C(C)C)c1nc(C(=O)N[C@H]2CC[C@H](C(=O)O)CC2)cs1` [Tb-59, (1R,4r)-4-(2-((1R,3R)-1-Acetoxy-3-((S)—N,3-dimethyl-2-((R)-1-methylpiperidine-2-carboxamido)butanamido)-4-methylpentyl)thiazole-4-carboxamido)cyclohexane-1-carboxylic Acid] the IC50 [1, 8] was > 100 nM and the IC50 [2, 9] was > 100 nM.

With `CC[C@H](C)[C@H](NC(=O)[C@H]1CCCCN1C)C(=O)N[C@H](C[C@@H](OC(C)=O)c1nc(C(=O)N[C@@H](Cc2ccccc2)C[C@H](C)C(=O)O)cs1)C(C)C` [Tb-54, (2S,4R)-4-(2-((1R,3R)-1-Acetoxy-4-methyl-3-((2S,3S)-3-methyl-2-((R)-1-methylpiperidine-2-carboxamido)pentanamido)pentyl)thiazole-4-carboxamido)-2-methyl-5-phenylpentanoic Acid] the IC50 ([1]; Homo sapiens, MES SA, Table 3, read-out: MES SA IC50) was 6.21 nM and the IC50 ([2]; Homo sapiens, HEK 293T, Table 3, read-out: HEK 293T IC50) was 0.73 nM.

`COC(=O)[C@H]1CC[C@H](NC(=O)c2csc([C@@H](C[C@H](C(C)C)N(C)C(=O)[C@@H](NC(=O)[C@H]3CCCCN3C)C(C)C)OC(C)=O)n2)CC1` [Tb-58, Methyl (1R,4r)-4-(2-((1R,3R)-1-acetoxy-3-((S)—N,3-dimethyl-2-((R)-1-methylpiperidine-2-carboxamido)butanamido)-4-methylpentyl)thiazole-4-carboxamido)cyclohexane-1-carboxylate] was tested, and the IC50 [1, 8] was 6.16 nM and the IC50 [2, 9] was 3.83 nM.
